18 compounds from PubChem BioAssay (NCI) can be followed below.

Among the test systems are U251 CNS; NCI-H460 lung; SK-MEL-28 melanoma; CAKI-1 renal; UACC-62 melanoma; SW-620 colon; HS 578T breast; MDA-MB-231 breast; DU-145 prostate; MDA-N.
Holding throughout (assay): growth of human tumour cells (NCI), 48 h

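Dose response: 5 concentrations. Exposure: 48 h. Format: 96-well plates. Endpoint: linear interpolation; highest concentration if not reached. At the TGI there is no net growth.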

For `CCN(CC)CCCNC(=O)c1ccc([N+](=O)[O-])cc1O`, the TGI in the test with U251 CNS, with NCI-H460 lung, in the test on SK-MEL-28 melanoma, with CAKI-1 renal, in the test on UACC-62 melanoma and in the test with SW-620 colon was above 100 µM in each case.
With `COC(=O)CCc1cc(OC)c2c(c1)[C@H](C(=O)OC)[C@@H](c1ccc(O)c(OC)c1)O2`, the TGI in the test on U251 CNS, in the test with HS 578T breast, with NCI-H460 lung, in the test on SK-MEL-28 melanoma, in the test on MDA-MB-231 breast and in the test on UACC-62 melanoma was above 100 µM throughout. The TGI in the test on DU-145 prostate was above 100 µM; in the test on SW-620 colon, above 100 µM; with MDA-N it was 44.6 µM.
Take `C=Cc1ccc(C)[n+](C[Si](C)(C)O[Si](C)(C)C[n+]2cc(C=C)ccc2C)c1`: the TGI in the test with U251 CNS, in the test on NCI-H460 lung, in the test with SK-MEL-28 melanoma, in the test with CAKI-1 renal, in the test with UACC-62 melanoma and with SW-620 colon was above 100 µM each time.
Consider `N#CC1=C(c2ccccc2)NNC(c2ccc(Cl)cc2)CC1=O` (centres undefined), for which the TGI in the test with U251 CNS, in the test on NCI-H460 lung, in the test with SK-MEL-28 melanoma, in the test with CAKI-1 renal and in the test with SW-620 colon was above 100 µM in each case.
Take `Cn1ccnc1C(O)(c1nccn1C)c1nccn1C`: the TGI with U251 CNS, in the test on NCI-H460 lung, in the test with SK-MEL-28 melanoma, with CAKI-1 renal and in the test on SW-620 colon was above 100 µM each time.
With `CC(C)=CCC/C(C)=C/COC(C)(C)C1=CCC(C)CC1` (centres undefined) (tested in a mixture with another compound), the TGI with U251 CNS, in the test on HS 578T breast, in the test with NCI-H460 lung, with SK-MEL-28 melanoma, in the test on CAKI-1 renal and with UACC-62 melanoma was above 100 µM each time. The TGI in the test on DU-145 prostate, in the test with SW-620 colon and in the test on MDA-N was above 100 µM throughout.
As for `O=C1NCCS(=O)(=O)N[C@@H](CC2=CC=CCC2)C(=O)N2CCCC12` (some centres undefined), the TGI in the test with U251 CNS, in the test with NCI-H460 lung, in the test with SK-MEL-28 melanoma, with UACC-62 melanoma and in the test with SW-620 colon was above 100 µM each time.
`CCOC(=O)c1c(-c2ccccc2)c(-c2ccccc2)cn1C`: the TGI in the test with U251 CNS, in the test with HS 578T breast, in the test on NCI-H460 lung, in the test on UACC-62 melanoma, with DU-145 prostate and with MDA-N was above 10 µM throughout.
For `CC(C)(C)OC(=O)NCCC(N)=S`, the TGI in the test with U251 CNS, in the test on HS 578T breast, in the test on NCI-H460 lung, in the test on SK-MEL-28 melanoma, in the test on UACC-62 melanoma and in the test with DU-145 prostate was above 100 µM each time. Moreover, the TGI in the test with SW-620 colon and in the test on MDA-N was above 100 µM throughout.
Regarding `CCOC(=O)c1nc2ccc(C(F)(F)F)cc2nc1Oc1ccc(C#N)cc1`, the TGI in the test on U251 CNS is 61.1 µM; in the test on HS 578T breast it was 36.5 µM; in the test on NCI-H460 lung, above 100 µM; in the test on SK-MEL-28 melanoma, above 100 µM; in the test on MDA-MB-231 breast it was 27.9 µM; with CAKI-1 renal, 59.1 µM. Moreover, the TGI in the test on UACC-62 melanoma is 36.5 µM; in the test with DU-145 prostate it was 38.1 µM; in the test with SW-620 colon it was above 100 µM.
Regarding `S=C(/N=c1\sc(Nc2ccc(Cl)cc2)nc2sc3c(c12)CCN(N1CCc2c(sc4nc(Nc5ccc(Cl)cc5)s/c(=N\C(=S)Nc5ccc(Cl)cc5)c24)C1)C3)Nc1ccc(Cl)cc1`, the TGI with U251 CNS is 61.9 µM; in the test with HS 578T breast it was above 100 µM; in the test with NCI-H460 lung it was above 100 µM; with SK-MEL-28 melanoma, above 100 µM; in the test with MDA-MB-231 breast it was 35.1 µM; in the test on UACC-62 melanoma, 48 µM. Further, the TGI is 64.6 µM in the test on DU-145 prostate, above 100 µM in the test with SW-620 colon and 30.8 µM in the test on MDA-N.
In the case of `O=C(CN(c1ccccc1)c1ccccc1)N1c2ccccc2C2C=CC=CC21` (centres undefined), the TGI in the test with U251 CNS is above 56.5 µM; in the test on NCI-H460 lung, 36.1 µM; with SK-MEL-28 melanoma, above 56 µM; in the test with CAKI-1 renal it was 32.2 µM; in the test with UACC-62 melanoma it was 50.6 µM; in the test on SW-620 colon, above 53.5 µM.
In the case of `O=C1Sc2ccccc2C(=O)N2CSCC12` (centres undefined), the TGI in the test on U251 CNS, in the test on NCI-H460 lung, in the test with SK-MEL-28 melanoma, with UACC-62 melanoma and in the test on SW-620 colon was above 100 µM each time.
On to `Cc1cn([C@@H]2C[C@H](CO)[C@@H](O)C2)c(=O)[nH]c1=O`, for which the TGI in the test with U251 CNS, with NCI-H460 lung, with SK-MEL-28 melanoma, in the test with UACC-62 melanoma and with SW-620 colon was above 100 µM each time.
Consider `O=C(NC(COC(=O)C(Cc1ccccc1)NC(=O)c1ccccc1)Cc1ccccc1)c1ccccc1` (centres undefined), for which the TGI with U251 CNS, in the test on HS 578T breast, in the test with NCI-H460 lung, in the test on SK-MEL-28 melanoma, in the test on UACC-62 melanoma and in the test on SW-620 colon was above 50 µM each time.
Consider `CSC(=Nc1ccccc1)N(c1ccccc1)c1nc(=[N+](C)C)ss1`, for which the TGI with U251 CNS worked out at 17.2 µM; in the test with NCI-H460 lung, 18.1 µM; in the test on SK-MEL-28 melanoma, 2.83 µM; in the test on CAKI-1 renal, 11.3 µM; in the test on UACC-62 melanoma, 1.74 µM; in the test with SW-620 colon, 3.27 µM.
In the case of `COc1ccc(-c2oc(/C=N/NC(N)=S)c([N+](=O)[O-])c2-c2ccc(OC)c(OC)c2)cc1OC`, the TGI was 86.1 µM with SK-MEL-28 melanoma, above 100 µM in the test with CAKI-1 renal, 78.5 µM in the test with UACC-62 melanoma and above 100 µM in the test on SW-620 colon.
Consider `COc1ccc(CC2c3c(cc(OC)c(OC)c3OC)CCN2C)cc1OC` (centres undefined), for which the TGI in the test on U251 CNS, with NCI-H460 lung, with SK-MEL-28 melanoma, in the test on CAKI-1 renal and in the test with SW-620 colon was above 100 µM throughout.
